The source of these data is patent US7534455B2, “Herbal composition PHY906 and its use in chemotherapy” (Yale University, priority 2000, dated 2009).

One may read the Cmax as the highest concentration seen after dosing. Usually Tmax stands for the time at which the peak concentration occurs.

Each structure is given as a SMILES string. Like-named read-outs stand apart in the source and are kept apart here.

One series concerns pancreatic cancer. The conditions noted are these: monotherapy; cited from earlier work.
Series [1] can be described thus: Pharmacokinetics of gemcitabine (dFdC) and dFdU in plasma of PAN02 bearing BDF-1 mice. The format is in vivo. The settings on record: for AUC, dFdC + PHY906: PHY906 500 mg/kg 30 min before gemcitabine; for AUC, dFdC alone: gemcitabine 600 mg/kg. The method, then:
Plasma Handling: The mouse plasma was separated from the blood by centrifugation at 10,000 g at 4° C. for 10 min.
b) Gemcitabine-containing plasma: The plasma (50 μl) was extracted with 200 μl of acetonitrile (ACN) in the presence of 5 μl of 0.1 mM AZT as an internal standard. After centrifugation, the supernatant was dried by a Speedvac, reconstituted with 100 μl of solution containing 2.5% ACN and 97.5% of 15 mM ammonium acetate (pH 5.0).
The resultant analyte was then analyzed by HPLC with UV absorption and/or radioactivity.
To determine, for a future clinical trial, if PHY906 would change the metabolism of gemcitabine, a pharmacokinetics analysis in mice bearing pancreatic cancer was performed. Mice were divided into three sets of 15: gemcitabine only, gemcitabine plus PHY906, and vehicle control. Each mouse in the set was bled twice at two different time points. Plasma was processed as described in Materials and Methods and analyzed by HPLC with radioactivity confirmation of peak identity and quantitation.

In series [2] the test system is PAN02 murine pancreatic carcinoma. The experiment in a line: Tumor growth in PAN02 murine pancreatic carcinoma model. The series is classed as in vivo, mouse. The settings on record: C57/BL6 mice; 150 mg/kg. The protocol: Tumor Cells: The human hepatocellular carcinoma HepG2, human PANC-1 pancreatic cancer and mouse Colon 38 colorectal cancer cell lines were purchased from the American Type Culture Collection (Rockville, Md.). […] Small chunk of mouse PAN02 tumor from NCI was suspended in PBS solution as a total volume of 0.8 ml. The cells were implanted into the left flank of mice. Tumor transplantation from mice to mice was performed when the tumor reached 1500-2000 mm^3. Mouse Tumor Model: Tumor cells (5×10^6 cells in 0.1 ml PBS) were transplanted subcutaneously into the left flank of mice. After 14 days, tumor ranging in size from 300-500 mm^3 was selected for drug studies. The length and width of the each tumor was measured with sliding calipers. The tumor size was estimated according to the following formula: Tumor size (mm^3)=length (mm)×width (mm)^2/2. Antitumor Activity of Chemotherapeutic Agents in the Presence or Absence of PHY906: […] The first day of drug treatment was defined as day 1. […] Chemotherapeutic agents were given either intraperitoneally or orally at the dose and schedule indicated. The tumor size, body weight, and mortality of the mice were monitored daily.

In another series the test system is Colon 38 tumor. The experiment in a line: Tumor growth in BDF-1 mice bearing Colon 38 tumor. The format is in vivo, mouse. The conditions noted are these: CPT-11 treated mice; formulation 1 g/kg, bid, 8 days. The method, then: (§1) Anti-Tumor Studies: Murine Colon 38 (1-2×10^6 cells in 0.1 ml PBS) or human HepG2 cells (1-2×10^6 cells in 0.1 ml PBS) were transplanted subcutaneously into BDF1 or NCr athymic nude mice, respectively. The length and width of the tumors were measured daily with sliding calipers. The tumor weight was estimated according to the following formula (Pizzorno G, Wiegand R, Lentz S, et al., Cancer Res. 52:1660-1665 (1992)): Tumor weight (mg)=length (mm)×width (mm)^2/2.
(§2) After 10 to 14 days, mice (five animals/group) with tumor weights ranging from 150-200 mg were selected for drug studies (Guo X, Lerner-Tung M, Chen H X, et al., Biochem Pharmacol 49:1111-1116 (1995)). Mice were sacrificed when the tumor size reached 10% of body weight. PHY906 was administered orally either alone or with anti-cancer chemotherapeutic agents. The effect of PHY906 on antitumor efficacy and the reduction of toxicity by the agents were evaluated. CPT-11 was given intraperitoneally (i.p.) 30 min after PHY906 administration with the selected dose. The regimen of FU/LV combination therapy was given as follows:
(A) treatment with FU/LV alone: first dose of LV (50 mg/kg, i.p.), one hour later the second dose of LV (50 mg/kg; i.p.), then immediately given FU (100 mg/kg, i.p.) […]
The first day of treatment was defined as day 0. […] Animals were monitored for mortality, weight loss, and tumor size daily.

A short description of series [3]: Host toxicity (body weight loss, mortality, blood cell counts) in chemotherapy treated BDF-1 mice bearing Colon 38 tumor. The series is classed as in vivo. The method, then:
as §1, §2
The first day of treatment was defined as day 0. PHY906 was given orally twice a day (10 am and 3 pm) for either 4 or 8 days beginning on day 0. For the control group, mice were administrated a vehicle, either PBS for i.p. or H2O for p.o. (oral administration). Animals were monitored for mortality, weight loss, and tumor size daily.
Blood Cell Counts: Blood (20 μl) was taken from mice on days 0, 3, 6, 9 and 12 with micro-capillary tubes. Blood was then be diluted to 200 μl with normal saline (0.85% Sodium Chloride). WBC, RBC and platelets were counted by a BAKER SYSTEM 9100™ […] (Biochem ImmunoSystems Inc., Allentown, Pa. 18103-9562).
PHY906 was evaluated as a modulator of CPT-11 therapy for toxic side effects in mice inoculated with Colon 38 tumor cells. Based on the previous findings (Example 2), a single bolus dose of 400 mg/kg CPT-11 was selected to study the effect of PHY906 on weight-loss associated with toxicity of CPT-11. To evaluate whether PHY906 impairs the antitumor efficacy of CPT-11, mice were implanted subcutaneously with Colon 38 tumor cells. Ten to 14 days after inoculation, mice were treated with CPT-11 (400 mg/kg, i.p.) in the absence or presence of PHY906, which was given orally twice a day at varying doses (125 mg/kg, 250 mg/kg, and 500 mg/kg). PHY906 treatment was continued at the dose indicated for 8 consecutive days.
Mice were divided into four groups with different treatment regimens: Group (A) treatment with vehicle; Group (B) treatment with a single dose of 400 mg/kg CPT-11 by i.p. injection; Group (C) treatment with PHY906 (500 mg/kg/b.i.d.) alone; or Group (D) treatment with a single dose of 400 mg/kg CPT-11 plus 500 mg/kg/b.i.d. PHY906 for 4 or 8 days. The sequence of each treatment regimen appears in Materials and Methods. As depicted in Table 9, 35 of 35 tumor-bearing mice (100%) from Group A and 15 of 15 mice (100%) from Group C survived treatment with either vehicle or PHY906 alone for 4 or 8 days, indicating no or very low toxicity for PHY906.

Regarding `Nc1ccn([C@@H]2O[C@H](CO)[C@@H](O)C2(F)F)c(=O)n1` [dFdC, 2′-deoxy-2′,2′-difluoro-cytidine], in the series with pancreatic cancer, the Overall survival time is 4-6 months and the “Response rate in patients” value was 6-11%. The Cmax in series [1] (BDF-1, mouse, plasma, oral, 600 mg/kg, Radioactivity detection, read-out: Cmax, dFdC + PHY906) worked out at 400 µg/mL. Besides, the Cmax in series [1] (BDF-1, mouse, plasma, oral, 600 mg/kg, Radioactivity detection, read-out: Cmax, dFdC alone) came out at 360 µg/mL. For the same compound, the Tmax in series [1] (BDF-1, mouse, plasma, oral, 600 mg/kg, Radioactivity detection, read-out: Tmax, dFdC alone (converted)) was 15 min. The half-life in series [1] (BDF-1, mouse, plasma, oral, 600 mg/kg, Radioactivity detection, read-out: T½, dFdC + PHY906) was 34.2 min. Moreover, the half-life in series [1] (BDF-1, mouse, plasma, oral, 600 mg/kg, Radioactivity detection, read-out: T½, dFdC alone) stood at 26.5 min. The Cmax in series [1] (BDF-1, mouse, plasma, oral, 600 mg/kg, UV detection, read-out: Cmax, dFdC alone) amounted to 230 µg/mL. Also, the half-life in series [1] (BDF-1, mouse, plasma, oral, 600 mg/kg, UV detection, read-out: T½, dFdC alone) was found to be 27 min. In addition, in series [1] (Radioactivity detection), the “Tmax, dFdC + PHY906” value was 15 min; the “AUC, dFdC + PHY906” value turned out to be 25.0 mg·min/mL; the “AUC, dFdC alone” value worked out at 15.6 mg·min/mL. For the same compound, in series [1] (UV detection), the “Cmax, dFdC + PHY906” value stood at 250 µg/mL; the “Tmax, dFdC + PHY906” value turned out to be 15 min; the “Tmax, dFdC alone” value came out at 15 min; the “T½, dFdC + PHY906” value turned out to be 31.0 min. In series [1] (UV detection), the “AUC, dFdC + PHY906” value is 15.4 mg·min/mL and the “AUC, dFdC alone” value amounted to 10.8 mg·min/mL. Besides, the “Levels in circulation in the presence or absence of PHY906” value in series [1] (plasma) is on record as “not a dramatic difference”. Besides, the “Antitumor activity, gemcitabine alone” value in series [2] is recorded as “did not have antitumor activity”.

On to `CN(C)C(=O)C(CCN1CCC(O)(c2ccc(Cl)cc2)CC1)(c1ccccc1)c1ccccc1` [Loperamide], for which the “Antitumor Effect” value in the series on Colon 38 tumor was “No Change”. For the same compound, the “Protecting against body weight loss or enhancing the antitumor effects of CPT-11” value in series [3] (CPT-11 treated BDF-1 mice bearing Colon 38) is “completely ineffective”. Also, the “Protection from Body Weight Loss” value in series [3] (CPT-11 treated mice, formulation 1 g/kg (dry weight incl. excipient), bid, 8 days) is “No Change”.
